Reference: patent US20230017786A1, “DEXTR[…] A DISEASE-MODIFYING TREATMENT FOR NEUROPSYCHIATRIC DISORDERS AND DISEASES” (priority 2020, published 2023)
pKi: −log10 of the molar value.

Columns and labels:
[1] = test system: Western diet fed Sprague-Dawley rats, liver; experiment: Western diet treated rats, hepatic inflammation, steatosis and lipid metabolism genes; conditions: 10 mg/kg, gastric gavage, 15 days
[2] = biological target: T1, 5-HT2C receptor (Homo sapiens, UniProt P28335); conditions: agonist; Rickli et al., 2018; cited from earlier work
T1 sequence (P28335 33-458): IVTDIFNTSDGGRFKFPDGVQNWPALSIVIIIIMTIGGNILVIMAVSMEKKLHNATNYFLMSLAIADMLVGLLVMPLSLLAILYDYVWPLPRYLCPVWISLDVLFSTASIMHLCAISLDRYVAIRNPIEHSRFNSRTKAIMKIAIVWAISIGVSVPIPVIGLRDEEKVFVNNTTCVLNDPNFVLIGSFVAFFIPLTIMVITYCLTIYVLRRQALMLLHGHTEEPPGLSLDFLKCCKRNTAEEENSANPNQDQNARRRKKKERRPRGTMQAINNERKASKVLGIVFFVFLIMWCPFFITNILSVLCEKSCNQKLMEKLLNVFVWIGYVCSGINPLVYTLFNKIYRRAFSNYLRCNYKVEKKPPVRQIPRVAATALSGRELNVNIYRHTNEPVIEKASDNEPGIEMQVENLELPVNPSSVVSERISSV

[3] = Phase 1 SAD and MAD studies, pharmacokinetics
[4] = biological target: T2, human NMDA receptor GluN1-GluN2B (Homo sapiens, UniProt Q05586+Q13224); experiment: cell-based; assay type: cell-based
T2 construct: expressed in transfected cells; host or cells: CHO

[5] = biological target: T3, recombinant human NMDAR GluN1 plus GluN2A (Homo sapiens, UniProt Q05586+Q12879); experiment: FLIPR calcium assay, gentamicin as PAM (Example 5 Part I), GluN2A cell line; assay type: cell-based; conditions: 10 μM test item; dextromethadone in presence and absence of 10 μM gentamicin
T3 construct: expressed in transfected cells; host or cells: CHO
T3 sequence (Q12879 23-1464, other chains not shown): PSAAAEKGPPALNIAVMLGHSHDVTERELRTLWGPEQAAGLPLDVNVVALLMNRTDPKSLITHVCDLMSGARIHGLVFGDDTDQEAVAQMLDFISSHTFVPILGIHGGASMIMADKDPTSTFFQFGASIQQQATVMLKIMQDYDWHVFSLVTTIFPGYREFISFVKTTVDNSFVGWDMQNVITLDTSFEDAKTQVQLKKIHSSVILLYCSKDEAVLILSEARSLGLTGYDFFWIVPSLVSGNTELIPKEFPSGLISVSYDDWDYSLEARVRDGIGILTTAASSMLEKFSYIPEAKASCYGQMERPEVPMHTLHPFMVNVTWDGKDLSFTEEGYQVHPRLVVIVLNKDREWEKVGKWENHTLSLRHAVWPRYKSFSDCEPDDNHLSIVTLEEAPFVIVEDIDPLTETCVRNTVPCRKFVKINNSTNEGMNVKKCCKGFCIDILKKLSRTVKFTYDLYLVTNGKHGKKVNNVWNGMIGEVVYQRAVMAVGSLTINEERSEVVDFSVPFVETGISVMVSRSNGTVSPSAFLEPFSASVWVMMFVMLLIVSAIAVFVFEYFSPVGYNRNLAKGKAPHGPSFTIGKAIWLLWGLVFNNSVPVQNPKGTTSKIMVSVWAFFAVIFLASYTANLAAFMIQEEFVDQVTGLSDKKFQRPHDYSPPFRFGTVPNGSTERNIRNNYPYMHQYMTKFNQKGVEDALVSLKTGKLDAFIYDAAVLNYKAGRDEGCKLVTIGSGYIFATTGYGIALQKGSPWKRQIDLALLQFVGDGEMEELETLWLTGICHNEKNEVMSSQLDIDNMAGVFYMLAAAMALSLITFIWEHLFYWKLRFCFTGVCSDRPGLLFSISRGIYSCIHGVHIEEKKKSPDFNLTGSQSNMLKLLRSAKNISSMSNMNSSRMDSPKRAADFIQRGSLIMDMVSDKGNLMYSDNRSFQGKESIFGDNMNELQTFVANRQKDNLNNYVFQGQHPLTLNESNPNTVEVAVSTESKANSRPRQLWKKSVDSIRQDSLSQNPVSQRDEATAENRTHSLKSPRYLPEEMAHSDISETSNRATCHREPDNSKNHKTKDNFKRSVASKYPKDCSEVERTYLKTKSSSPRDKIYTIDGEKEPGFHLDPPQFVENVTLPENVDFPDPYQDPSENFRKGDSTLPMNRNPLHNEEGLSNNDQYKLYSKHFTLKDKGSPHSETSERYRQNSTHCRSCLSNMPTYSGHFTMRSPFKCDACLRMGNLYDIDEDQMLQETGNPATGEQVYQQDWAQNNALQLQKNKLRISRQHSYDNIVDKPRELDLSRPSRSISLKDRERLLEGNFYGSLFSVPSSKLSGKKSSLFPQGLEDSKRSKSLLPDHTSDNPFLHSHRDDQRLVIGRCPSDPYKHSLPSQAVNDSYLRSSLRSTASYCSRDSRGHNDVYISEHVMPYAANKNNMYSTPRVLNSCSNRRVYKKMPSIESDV
Source text: (§1) A FLIPR calcium assay was used to profile gentamicin using stable cell lines expressing diheteromeric recombinant human NMDARs, containing GluN1 plus one amongst GluN2A, GluN2B, GluN2C or GluN2D subunit.

[6] = biological target: T4, recombinant human NMDAR GluN1 plus GluN2C (Homo sapiens, UniProt Q05586+Q14957); experiment: FLIPR calcium assay, gentamicin as PAM (Example 5 Part I), GluN2C cell line; assay type: cell-based; conditions: 10 μM test item; dextromethadone in presence and absence of 10 μM gentamicin
T4 construct: expressed in transfected cells; host or cells: CHO
Source text: as §1

[7] = biological target: T5, human NMDA receptor GluN1-GluN2A (Homo sapiens, UniProt Q05586+Q12879); experiment: FLIPR calcium assay, test item effect on L-glutamate CRC, GluN1-GluN2A-CHO; assay type: cell-based
T5 construct: expressed in transfected cells; host or cells: CHO
T5 sequence (Q12879 23-1464, other chains not shown): as above

[8] = biological target: T6, human NMDA receptor GluN1-GluN2D (Homo sapiens, UniProt O15399+Q05586); experiment: FLIPR calcium assay, quinolinic acid, gentamicin, dextromethadone (Example 5 Part II), GluN1-GluN2D-CHO; assay type: cell-based; conditions: 10 μM glycine; for calcium response (mean±SEM): GluN2D, n=42
T6 construct: expressed in transfected cells; host or cells: CHO
T6 sequence (O15399 28-1336, other chains not shown): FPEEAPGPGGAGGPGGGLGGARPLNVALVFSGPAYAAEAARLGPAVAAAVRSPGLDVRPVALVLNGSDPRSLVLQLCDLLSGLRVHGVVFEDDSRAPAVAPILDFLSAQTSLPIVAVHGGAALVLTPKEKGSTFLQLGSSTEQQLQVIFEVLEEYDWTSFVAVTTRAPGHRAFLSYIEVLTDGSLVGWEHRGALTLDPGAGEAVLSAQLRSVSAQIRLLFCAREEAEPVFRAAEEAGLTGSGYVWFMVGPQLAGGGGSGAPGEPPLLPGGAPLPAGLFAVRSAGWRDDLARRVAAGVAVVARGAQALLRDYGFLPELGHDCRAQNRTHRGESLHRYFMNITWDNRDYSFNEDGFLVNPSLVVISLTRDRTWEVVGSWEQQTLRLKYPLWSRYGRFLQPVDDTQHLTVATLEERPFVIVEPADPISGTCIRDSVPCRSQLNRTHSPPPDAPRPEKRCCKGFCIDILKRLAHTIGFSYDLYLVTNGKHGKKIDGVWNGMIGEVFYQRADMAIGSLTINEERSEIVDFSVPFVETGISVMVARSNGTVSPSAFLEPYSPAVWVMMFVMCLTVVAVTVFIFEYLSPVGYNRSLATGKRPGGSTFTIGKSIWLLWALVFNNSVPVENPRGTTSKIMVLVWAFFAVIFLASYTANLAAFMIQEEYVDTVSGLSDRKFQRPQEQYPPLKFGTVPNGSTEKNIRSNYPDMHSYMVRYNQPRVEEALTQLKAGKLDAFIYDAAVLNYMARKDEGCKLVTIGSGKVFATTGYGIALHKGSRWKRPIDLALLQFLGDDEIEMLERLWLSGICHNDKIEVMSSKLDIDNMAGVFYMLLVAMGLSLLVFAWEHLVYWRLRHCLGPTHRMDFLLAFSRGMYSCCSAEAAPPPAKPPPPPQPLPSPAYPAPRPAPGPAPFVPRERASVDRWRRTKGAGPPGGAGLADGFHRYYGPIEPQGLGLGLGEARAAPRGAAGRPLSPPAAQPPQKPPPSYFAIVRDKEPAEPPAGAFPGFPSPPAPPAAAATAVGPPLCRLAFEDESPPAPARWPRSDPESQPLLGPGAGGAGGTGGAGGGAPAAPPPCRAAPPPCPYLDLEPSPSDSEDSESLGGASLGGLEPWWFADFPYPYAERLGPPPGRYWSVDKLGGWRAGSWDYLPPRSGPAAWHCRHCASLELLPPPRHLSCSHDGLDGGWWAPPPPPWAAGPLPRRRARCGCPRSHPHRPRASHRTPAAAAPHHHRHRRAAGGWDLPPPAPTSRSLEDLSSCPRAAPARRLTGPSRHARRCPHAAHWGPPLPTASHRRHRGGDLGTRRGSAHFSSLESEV
In short: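 CHO lines expressing diheteromeric human GluN1/GluN2A–D, loaded 1 h with Fluo-4, tested by FLIPR for intracellular calcium with 10 μM glycine present. Quinolinic acid, gentamicin and test items were run as concentration-response curves, alone or combined. EC50 obtained from a four-parameter Hill fit.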

[9] = biological target: T7, human NMDA receptor GluN1-GluN2C (Homo sapiens, UniProt Q05586+Q14957); experiment: FLIPR calcium assay, test item effect on L-glutamate CRC, GluN1-GluN2C-CHO; assay type: cell-based
T7 construct: expressed in transfected cells; host or cells: CHO

[10] = operational analysis for allosteric modulators

CCC(=O)C(C[C@H](C)N(C)C)(c1ccccc1)c1ccccc1 [Dextromethadone, dextromethadone]
CCL2 gene expression in liver (qRT-PCR) [1]: didn't affect significantly this increase | GPAT4 gene expression in liver (qRT-PCR) [1]: significant drop of their expression | IL-6 gene expression in liver (qRT-PCR) [1]: able to counteract this effect | IL-10 gene expression in liver (qRT-PCR) [1]: able to counteract this effect | SREPB2 gene expression in liver (qRT-PCR) [1]: significant drop of their expression | hepatic steatosis, histology [1]: reduction of steatosis | pKi [2]: 5.72 | conversion of dextromethadone to levomethadone in vivo ([3]; SAD and MAD subjects): No detectable conversion | pharmacokinetic linearity ([3]; SAD and MAD, racially diversified subjects): linear pharmacokinetics with dose proportionality | α, estimated cooperativity term [4, 10]: 0.26 | L-glutamate CRC HillSlope ([4]; with test item 49 nM): 1.2 | L-glutamate CRC LogEC50 ([4]; with test item 49 nM): −7.0 | L-glutamate CRC HillSlope ([4]; with test item 195 nM): 1.2 | L-glutamate CRC LogEC50 ([4]; with test item 195 nM): −6.9 | L-glutamate CRC HillSlope ([4]; with test item 781 nM): 1.2 | L-glutamate CRC LogEC50 ([4]; with test item 781 nM): −6.9 | L-glutamate CRC HillSlope ([4]; with test item 3.1 μM): 1.1 | L-glutamate CRC LogEC50 ([4]; with test item 3.1 μM): −6.9 | L-glutamate CRC HillSlope ([4]; with test item 12.5 μM): 1.3 | L-glutamate CRC LogEC50 ([4]; with test item 12.5 μM): −6.7 | L-glutamate CRC HillSlope ([4]; with test item 50 μM): 1.1 | L-glutamate CRC LogEC50 ([4]; with test item 50 μM): −6.4 | calcium entry induced by 0.04 μM L-glutamate [5]: significantly reduced | calcium entry induced by 0.2 μM L-glutamate [5]: significantly reduced | calcium entry induced by 10 μM L-glutamate [5]: significantly reduced | calcium entry induced by 0.04 μM L-glutamate [6]: significantly reduced | calcium entry induced by 0.2 μM L-glutamate [6]: significantly reduced | calcium entry induced by 10 μM L-glutamate [6]: significantly reduced | α, estimated cooperativity term [7, 10]: 0.22 | L-glutamate CRC HillSlope ([7]; with test item 49 nM): 1.0 | L-glutamate CRC LogEC50 ([7]; with test item 49 nM): −6.7 | L-glutamate CRC HillSlope ([7]; with test item 195 nM): 1.1 | L-glutamate CRC LogEC50 ([7]; with test item 195 nM): −6.6 | L-glutamate CRC HillSlope ([7]; with test item 781 nM): 1.1 | L-glutamate CRC LogEC50 ([7]; with test item 781 nM): −6.6 | L-glutamate CRC HillSlope ([7]; with test item 3.1 μM): 1.0 | L-glutamate CRC LogEC50 ([7]; with test item 3.1 μM): −6.6 | L-glutamate CRC HillSlope ([7]; with test item 12.5 μM): 1.0 | L-glutamate CRC LogEC50 ([7]; with test item 12.5 μM): −6.4 | L-glutamate CRC HillSlope ([7]; with test item 50 μM): 1.4 | L-glutamate CRC LogEC50 ([7]; with test item 50 μM): −6.4 | calcium response (mean±SEM) ([8]; 0.04 μM L-Glu + 10 μM DXT): 3.5 ± 0.2 | calcium response (mean±SEM) ([8]; 0.04 μM L-Glu + 100 μM QA + 10 μM DXT): 7.1 ± 0.4 | calcium response (mean±SEM) ([8]; 0.04 μM L-Glu + 1000 μM QA + 10 μM DXT): 33 ± 1.6 | calcium response (mean±SEM) ([8]; 0.2 μM L-Glu + 10 μM DXT): 71 ± 2.3 | calcium response (mean±SEM) ([8]; 0.2 μM L-Glu + 100 μM QA + 10 μM DXT): 69 ± 1.4 | calcium response (mean±SEM) ([8]; 0.2 μM L-Glu + 1000 μM QA + 10 μM DXT): 43 ± 1.1 | % effect on calcium entry, 100 QA + 10 DXT ([8]; 100 μM QA + 10 μM DXT): −2.4 ± 0.2% | calcium response (mean±SEM) ([8]; 1000 μM QA + 10 μM DXT): 32 ± 0.9 | % effect on calcium entry, 1000 QA + 10 DXT ([8]; 1000 μM QA + 10 μM DXT): 32 ± 0.9% | calcium response (mean±SEM) ([8]; 1000 μM QA + 10 μg/ml GENT + 10 μM DXT): 36 ± 0.8 | calcium response (mean±SEM) ([8]; Table 41: 0.04 μM L-Glu + 10 μM DXT): 3.5 ± 0.2 | calcium response (mean±SEM) ([8]; Table 43: 0.2 μM L-Glu + 10 μM DXT): 71 ± 2.3 | α, estimated cooperativity term [9, 10]: 0.17 | L-glutamate CRC HillSlope ([9]; with test item 49 nM): 1.3 | L-glutamate CRC LogEC50 ([9]; with test item 49 nM): −6.8 | L-glutamate CRC HillSlope ([9]; with test item 195 nM): 1.4 | L-glutamate CRC LogEC50 ([9]; with test item 195 nM): −6.8 | L-glutamate CRC HillSlope ([9]; with test item 781 nM): 2.2 | L-glutamate CRC LogEC50 ([9]; with test item 781 nM): −6.8 | L-glutamate CRC HillSlope ([9]; with test item 3.1 μM): 1.4 | L-glutamate CRC LogEC50 ([9]; with test item 3.1 μM): −6.8 | L-glutamate CRC HillSlope ([9]; with test item 12.5 μM): 1.5 | L-glutamate CRC LogEC50 ([9]; with test item 12.5 μM): −6.7 | L-glutamate CRC HillSlope ([9]; with test item 50 μM): 1.7 | L-glutamate CRC LogEC50 ([9]; with test item 50 μM): −6.6
